# Target: DGKα (Homo sapiens (Human), UniProt P23743)
# Test: Measurement of inhibitory effect against DGKα enzyme (ADP-Glo)
# Format: biochemical
# Details: DGKα enzyme, ADP-Glo luminescence, OAG/ATP substrate, 20 min room temperature; read-out: IC50
# Experimental: Experimental Example: Measurement of Inhibitory Effect Against DGKα Enzyme
# First, 3×OAG (3 mM)/ATP (0.45 mM) substrate solution was prepared from 1× substrate assay buffer (40 mM MOPS (pH 7.2), 20 mM MgCl2, 1 mM DTT, 0.4 mM CaCl2), 3 mM sodium deoxycholate, 100 mM NaCl, 0.1 mg/mL BSA, 0.12% NP-40), and vortexed thoroughly for 3 minutes to induce detergent-lipid micelle formation. Then, 3×DGKα (7.5 nM) enzyme solution was prepared from 2× enzyme assay buffer (80 mM MOPS (pH 7.2), 2 mM DTT, 200 mM NaCl, 0.2 mg/mL BSA) and vortexed for a short time.
# After preparing the above two solutions, a half-area opaque 96-well assay plate was prepared, and 10 μL of 3× diluted compound solution (30 μM to 0 μM) was transferred to each well. Next, 10 μL of 3×DGK enzyme solution was transferred to the same plate, mixed by pipetting, and then 10 μL of 3×OAG/ATP substrate solution was added to the assay plate and mixed well. The plate was incubated at room temperature for 20 minutes for the enzyme reaction. Next, 15 μL of ADP-Glo reagent was added to each well and mixed by pipetting, followed by incubating the plate at room temperature for 40 minutes to deplete the remaining ATPs. After this step, 30 μL of kinase detection reagent was added and mixed, and the plate was incubated at room temperature for an additional 20 minutes and luminescence was measured by Envision to calculate the IC50 value of each compound.
# The measurement results are represented in Table 1 (+: IC50>5 μM, ++: 5 μM>IC50>300 nM, +++: IC50<300 nM).
# DGKα, sequence (P23743 whole entry, species assumed): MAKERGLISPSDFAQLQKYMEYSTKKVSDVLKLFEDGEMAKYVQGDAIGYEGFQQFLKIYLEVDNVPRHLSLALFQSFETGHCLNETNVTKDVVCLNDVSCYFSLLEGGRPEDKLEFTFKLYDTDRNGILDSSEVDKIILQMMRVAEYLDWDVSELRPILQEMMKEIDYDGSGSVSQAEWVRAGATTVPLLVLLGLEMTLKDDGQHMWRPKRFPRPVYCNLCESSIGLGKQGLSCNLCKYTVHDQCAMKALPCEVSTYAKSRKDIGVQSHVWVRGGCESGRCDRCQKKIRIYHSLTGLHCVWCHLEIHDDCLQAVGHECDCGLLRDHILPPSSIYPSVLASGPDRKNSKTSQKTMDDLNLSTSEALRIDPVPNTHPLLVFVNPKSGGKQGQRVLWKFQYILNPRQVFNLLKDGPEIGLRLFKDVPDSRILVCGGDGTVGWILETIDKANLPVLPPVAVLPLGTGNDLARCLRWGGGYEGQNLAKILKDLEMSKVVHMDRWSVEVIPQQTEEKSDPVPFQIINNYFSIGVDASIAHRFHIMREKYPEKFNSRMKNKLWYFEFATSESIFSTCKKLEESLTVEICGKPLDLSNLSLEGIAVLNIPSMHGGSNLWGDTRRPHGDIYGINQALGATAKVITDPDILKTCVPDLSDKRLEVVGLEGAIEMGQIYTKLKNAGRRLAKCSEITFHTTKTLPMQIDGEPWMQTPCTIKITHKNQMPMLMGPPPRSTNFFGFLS
row,SMILES,IC50 [nM]
1,"Cn1c(=O)c(=O)n(C2CCN(Cc3ccc(OC(F)(F)F)cc3)CC2)c2nc(-c3ccccc3F)c(Cl)cc21 [Example 41, 7-chloro-6-(2-fluorophenyl)-1-methyl-4-(1-(4-(trifluoromethoxy)benzyl)piperidin-4-yl)-1,4-dihydropyrido[2,3-b]pyrazine-2,3-dione]",< 300
2,"Cc1ccc2c(n1)n(C1CCN(C(C)c3ccc4nccnc4c3)CC1)c(=O)c(=O)n2C (centres unmarked) [Example 24, 1,6-dimethyl-4-(1-(1-(quinoxalin-6-yl)ethyl)piperidin-4-yl)-1,4-dihydropyrido[2,3-b]pyrazine-2,3-dione]",> 5000
3,"Cc1ccc2c(n1)n(C1CCN(Cc3ccc(F)nc3)CC1)c(=O)c(=O)n2C [Example 17, 4-(1-((6-fluoropyridin-3-yl)methyl)piperidin-4-yl)-1,6-dimethyl-1,4-dihydropyrido[2,3-b]pyrazine-2,3-dione]",300 to 5000
4,"Cn1c(=O)c(=O)n(C2CCN(Cc3ccc(OC(F)(F)F)cc3)CC2)c2ncc(F)cc21 [Example 59, 7-fluoro-1-methyl-4-(1-(4-(trifluoromethoxy)benzyl)piperidin-4-yl)-1,4-dihydropyrido[2,3-b]pyrazine-2,3-dione]",300 to 5000
5,"CNC(=O)c1cnc2c(c1)n(C)c(=O)c(=O)n2C1CCN(Cc2ccc(OC(F)(F)F)cc2)CC1 [Example 65, N,1-dimethyl-2,3-dioxo-4-(1-(4-(trifluoromethoxy)benzyl)piperidin-4-yl)-1,2,3,4-tetrahydropyrido[2,3-b]pyrazine-7-carboxamide]",300 to 5000
6,"Cc1nc2c(cc1Br)n(C)c(=O)c(=O)n2C1CCN(Cc2ccc(OC(F)(F)F)cc2)CC1 [Example 51, 7-bromo-1,6-dimethyl-4-(1-(4-(trifluoromethoxy)benzyl)piperidin-4-yl)-1,4-dihydropyrido[2,3-b]pyrazine-2,3-dione]",< 300
7,"Cc1ccc2c(n1)n(C1CCN(Cc3ccc(Oc4ccccc4)cc3)CC1)c(=O)c(=O)n2C [Example 18, 1,6-dimethyl-4-(1-(4-phenoxybenzyl)piperidin-4-yl)-1,4-dihydropyrido[2,3-b]pyrazine-2,3-dione]",< 300
8,"COc1ncccc1CN1CCC(n2c(=O)c(=O)n(C)c3ccc(C)nc32)CC1 [Example 15, 4-(1-((2-methoxypyridin-3-yl)methyl)piperidin-4-yl)-1,6-dimethyl-1,4-dihydropyrido[2,3-b]pyrazine-2,3-dione]",> 5000
